Here are results for seven compounds from ChEMBL document CHEMBL1126465, “Synthesis and pharmacological evaluation of nonacyclic and trisdecacyclic pyrazines related to cephalostatin” (1992).

≈ marks a conversion by molar mass, not a printed value.

In one assay the test system is P388. The assay can be described thus: In vitro cytotoxicity against P388 cell line; 10e-7-10e-9 ug/mL. It counts as functional. As to conditions: Mus musculus, read-out: ED50 (the source's name).
Assay [1] concerns A549. The assay can be described thus: In vitro cytotoxicity against human lung carcinoma cell line A-549 at 7.4*10e-5 M. As to conditions: read-out: ED50 (the source's name). It counts as functional.
Assay [2] relates to HT-29. The assay can be described thus: In vitro cytotoxicity against human colon adenocarcinoma cell line HT-29 at 1.6*10e-5M. It counts as functional. Conditions: read-out: ED50 (the source's name).
The subject of assay [3] is MCF7. The experiment in a line: In vitro cytotoxicity against human breast carcinoma cell line MCF-7 at 8.1*10e-5M. It counts as functional. Conditions: read-out: ED50 (the source's name).
Assay [4] has as its system Malme-3M. The assay can be described thus: In vitro cytotoxicity against human melanoma, metastatic to lung using MTT assay (MALME-3M). It counts as functional. Conditions: read-out: ED50 (the source's name).
For assay [5], the system named is SK-MEL-5. The experiment in a line: In vitro cytotoxicity against human melanoma, metastatic to auxiliary node (SK-MEL-5). It counts as functional. As to conditions: read-out: ED50 (the source's name).
Assay [6] concerns A549. The assay can be described thus: In vitro cytotoxicity against human lung carcinoma cell line A-549 at 6.1*10e-5 M. It counts as functional. As to conditions: read-out: ED50 (the source's name).
Assay [7] concerns NRK. The experiment in a line: In vitro cytotoxicity expressed as % cell kill against rat transformed cell line H/1/2-NRK at a dose of 3.3 uM. It counts as functional.
Assay [8] concerns NRK. The assay can be described thus: In vitro cytotoxicity expressed as % cell kill against rat transformed cell line H/1/2-NRK at a dose of 33 uM. It counts as functional.
Assay [9] concerns HT-29. The assay can be described thus: In vitro cytotoxicity against human colon adenocarcinoma cell line HT-29 at 1.2*10e-5M. It counts as functional. Conditions: read-out: ED50 (the source's name).
In assay [10] the test system is NRK. The assay can be described thus: In vitro cytotoxicity expressed as % cell kill against rat transformed cell line K/1-NRK at a dose of 3.3 uM. It counts as functional.
For assay [11], the system named is NRK. The experiment in a line: In vitro cytotoxicity expressed as % cell kill against ras transformed cell line K/1-NRK at a dose of 33 uM. It counts as functional, Rattus norvegicus.
In assay [12] the test system is MCF7. The assay can be described thus: In vitro cytotoxicity against human breast carcinoma cell line MCF-7 at 4.9*10e-5M. It counts as functional. Conditions: read-out: ED50 (the source's name).
For assay [13], the system named is Mus musculus. The assay can be described thus: Percent inhibition was determined against H/1/2-NRK tumor at a dose of 150 mg/kg/day in mice. It counts as functional.
The subject of assay [14] is Mus musculus. The experiment in a line: Percent inhibition was determined against K/1-NRK tumor at a dose of 150 mg/kg/day in mice. It counts as functional.
Assay [15] has as its system Mus musculus. The assay can be described thus: Percent inhibition was determined against K/1-NRK tumor at a dose of 75 mg/kg/day in mice. It counts as functional.
For assay [16], the species on record is Mus musculus. The assay can be described thus: Maximum tolerated dose (MTD) was reported. It counts as functional.
In assay [17] the test system is NRKE. The assay can be described thus: In vitro cytotoxicity expressed as % cell kill against normal rat kidney epithelial cell (NRKE) at a dose of 3.3 uM. It counts as functional.
Assay [18] deals with NRKE. The assay can be described thus: In vitro cytotoxicity expressed as % cell kill against normal rat kidney epithelial cell (NRKE) at a dose of 33 uM. It counts as functional.
Assay [19] has as its system SK-MEL-5. The assay can be described thus: In vitro cytotoxicity against human melanoma, metastatic to auxiliary node (SK-MEL-5) at 6.3*10e-5M. It counts as functional. Conditions: read-out: ED50 (the source's name).
Assay [20] deals with Malme-3M. The experiment in a line: In vitro cytotoxicity against human melanoma, metastatic to lung using MTT assay (MALME-3M) at 6.8*10e-5M. It counts as functional.
Assay [21] relates to A549. The experiment in a line: In vitro cytotoxicity against human lung carcinoma cell line A-549 at 3.6*10e-5 M. It counts as functional. Conditions: A549, read-out: ED50.
The subject of assay [22] is HT-29. The assay can be described thus: In vitro cytotoxicity against human colon adenocarcinoma cell line HT-29 at 5.7*10e-5M. Conditions: HT-29, read-out: ED50. It counts as functional.
In assay [23] the test system is MCF7. The experiment in a line: In vitro cytotoxicity against human breast carcinoma cell line MCF-7 at 4.4*10e-5M. It counts as functional. As to conditions: MCF7, read-out: ED50.
The subject of assay [24] is SK-MEL-5. The experiment in a line: In vitro cytotoxicity against human melanoma, metastatic to auxiliary node (SK-MEL-5) at 5.1*10e-5M. As to conditions: SK-MEL-5, read-out: ED50. It counts as functional.
For assay [25], the system named is A549. The experiment in a line: In vitro cytotoxicity against human lung carcinoma cell line A-549 at 5.0*10e-5M. Conditions: read-out: ED50 (the source's name). It counts as functional.
Assay [26] has as its system HT-29. The experiment in a line: In vitro cytotoxicity against human colon adenocarcinoma cell line HT-29 at 5.9*10e-5M. It counts as functional. As to conditions: read-out: ED50 (the source's name).
Assay [27] concerns MCF7. The assay can be described thus: In vitro cytotoxicity against human breast carcinoma cell line MCF-7 at 5.6*10e-5M. It counts as functional. As to conditions: read-out: ED50 (the source's name).
The subject of assay [28] is SK-MEL-5. The experiment in a line: In vitro cytotoxicity against human melanoma, metastatic to auxiliary node (SK-MEL-5) at 2.6*10e-5M. It counts as functional. Conditions: read-out: ED50 (the source's name).
Assay [29] concerns Malme-3M. The assay can be described thus: In vitro cytotoxicity against human melanoma, metastatic to lung using MTT assay (MALME-3M) at 4.7*10e-5M. It counts as functional. As to conditions: read-out: ED50 (the source's name). (Tetrazolium assays rely on reduction of a dye to a coloured formazan, in cell work by metabolically active cells.)
Assay [30] has as its system A549. The experiment in a line: In vitro cytotoxicity against human lung carcinoma cell line A-549. As to conditions: read-out: ED50 (the source's name). It counts as functional.
For assay [31], the system named is HT-29. The assay can be described thus: In vitro cytotoxicity against human colon adenocarcinoma cell line HT-29 at 3.0*10e-5 M. It counts as functional. Conditions: read-out: ED50 (the source's name).
In assay [32] the test system is MCF7. The assay can be described thus: In vitro cytotoxicity against human breast carcinoma cell line MCF-7. It counts as functional. As to conditions: read-out: ED50 (the source's name).
The subject of assay [33] is Malme-3M. The assay can be described thus: In vitro cytotoxicity against human melanoma, metastatic to lung using MTT assay (MALME-3M) at 5.5*10e-5M. Conditions: read-out: ED50 (the source's name). It counts as functional.
Assay [34] has as its system SK-MEL-5. The experiment in a line: In vitro cytotoxicity against human melanoma, metastatic to auxiliary node (SK-MEL-5) at 3.2*10e-5M. It counts as functional. Conditions: read-out: ED50 (the source's name).
Assay [35] deals with HT-29. The experiment in a line: In vitro cytotoxicity against human colon adenocarcinoma cell line HT-29. It counts as functional. As to conditions: read-out: ED50 (the source's name).

In the case of `C[C@@H]1[C@]2(O[C@H]3C=C4C5CC[C@@]6(C)Cc7nc8c(nc7C[C@]6(C)[C@@]5(C)C[C@@H](O)[C@]4(C)[C@]31O)C[C@]1(C)CCC3C4=CC[C@@H]5[C@H](C)[C@@]6(OC[C@]45C(=O)C[C@@H]3[C@@]1(C)C8)OC(C)(C)C[C@H]6O)O[C@](C)(CO)C[C@H]2O` (stereo partly specified) [CEPHALOSATIN], the EC50 in the assay on P388 came out at 0.001 ng/mL (≈ 1.05e-06 µM).
Turning to `C[C@@]12CCC3[C@](C)(CC[C@]4(C)C(=O)CC[C@@]34C)[C@@]1(C)Cc1nc3c(nc1C2)C[C@@]1(C)[C@@](C)(CCC2[C@]1(C)CC[C@]1(C)C(=O)CC[C@@]21C)C3` (stereo partly specified), the EC50 is 42 µg/mL (≈ 64.3 µM) in the assay with A549 [1]; 94 µg/mL (≈ 144 µM) with HT-29 [2]; 46 µg/mL (≈ 70.4 µM) in the assay on MCF7 [3]; greater than 100 µg/mL in the assay on Malme-3M [4]; greater than 100 µg/mL in the assay with SK-MEL-5 [5].
As for `C[C@@]12CCC3[C@](C)(CC[C@]4(C)[C@@H](O)CC[C@@]34C)[C@@]1(C)Cc1nc3c(nc1C2)C[C@@]1(C)[C@@](C)(CCC2[C@]1(C)CC[C@]1(C)[C@@H](O)CC[C@@]21C)C3` (stereo partly specified), the EC50 in the assay with A549 [6] was 35 µg/mL (≈ 53.3 µM); with HT-29 [9] it was 7 µg/mL (≈ 10.7 µM); in the assay with MCF7 [12], 28 µg/mL (≈ 42.6 µM); with SK-MEL-5 [19] it was 36 µg/mL (≈ 54.8 µM); with Malme-3M [20] (read-out: ED50 (the source's name)), 39 µg/mL (≈ 59.4 µM). The Cell kill in the assay with NRK [7], in the assay with NRK [8], in the assay on NRK [10], in the assay with NRK [11], in the assay with NRKE [17] and with NRKE [18] was 100% in each case. Besides, the figures for the inhibition in vivo at 150 mg/kg/day in the assay on Mus musculus [13] and in the assay on Mus musculus [14] were 59% and 51%, respectively. In addition, in the assay with Mus musculus [15], the inhibition in vivo (usually how much of the control response was suppressed) at 75 mg/kg/day was determined as 28%. The maximum tolerated dose (MTD) (as a rule, the highest dose tested that stayed within the study's limit of toxicity) in the assay listed under Mus musculus [16] came out at 150 mg/kg/day.
As for `C[C@@]12CCC3[C@](C)(CC[C@]4(C)[C@@H](O)CC[C@@]34C)[C@@]1(C)Cc1nc3c(nc1C2)C(N=[N+]=[N-])[C@@]1(C)[C@@H](CCC2[C@]1(C)CC[C@]1(C)[C@@H](O)CC[C@@]21C)C3` (stereo partly specified), the EC50 stood at 22 µg/mL (≈ 32.2 µM) in the assay with A549 [21]; 35 µg/mL (≈ 51.2 µM) in the assay with HT-29 [22]; 27 µg/mL (≈ 39.5 µM) with MCF7 [23]; 31 µg/mL (≈ 45.3 µM) in the assay with SK-MEL-5 [24]; 42 µg/mL (≈ 61.4 µM) with Malme-3M [20] (read-out: ED50).
For the compound `C[C@@]12CCC3[C@](C)(CC[C@]4(C)C5(CC[C@@]34C)OCCO5)[C@@]1(C)Cc1nc3c(nc1C2)C[C@@]1(C)[C@@](C)(CCC2[C@]1(C)CC[C@]1(C)C4(CC[C@@]21C)OCCO4)C3` (stereo partly specified), the EC50 is 33 µg/mL (≈ 44.5 µM) in the assay with A549 [25]; 39 µg/mL (≈ 52.6 µM) with HT-29 [26]; 37 µg/mL (≈ 49.9 µM) in the assay with MCF7 [27]; 17 µg/mL (≈ 22.9 µM) in the assay with SK-MEL-5 [28]; 31 µg/mL (≈ 41.8 µM) in the assay with Malme-3M [29].
For `C[C@H]1CC[C@@]2(OC1)O[C@H]1C[C@@]3(C)C4CC[C@@]5(C)Cc6nc7c(nc6C[C@]5(C)C4=C(O)C(=O)[C@]3(C)[C@H]1[C@@H]2C)C[C@]1(C)CCC2C(=C(O)C(=O)[C@]3(C)[C@@H]4[C@H](C[C@@]23C)O[C@]2(CC[C@H](C)CO2)[C@H]4C)[C@@]1(C)C7` (stereo partly specified), the EC50 in the assay on A549 [30] is greater than 100 µg/mL; in the assay with HT-29 [31], 26 µg/mL (≈ 27.9 µM); in the assay with MCF7 [32] it was greater than 100 µg/mL; in the assay on Malme-3M [33], 53 µg/mL (≈ 56.8 µM); with SK-MEL-5 [34], 28 µg/mL (≈ 30 µM).
On to `CCCCCCCC[C@H]1CC[C@@]2(C)C3CC[C@@]4(C)Cc5nc6c(nc5C[C@]4(C)[C@@]3(C)CC[C@]12C)C[C@]1(C)CCC2[C@](C)(CC[C@]3(C)[C@@H](CCCCCCCC)CC[C@@]23C)[C@@]1(C)C6` (stereo partly specified), for which the EC50 in the assay on A549 [30], in the assay with MCF7 [32], with Malme-3M [4], with SK-MEL-5 [5] and in the assay with HT-29 [35] was greater than 100 µg/mL each time.
